Measurements reported in patent US20090188860A1, “Use of antimicrobials in water technology” (priority 2006, published 2009).

Test system: bacteria
Test: bacterial presence in permeate and on membrane of a reverse osmosis module in a desalination process
Settings: cellulose acetate membranes cast with 0.5% and 2.0% by weight of the antimicrobial agent, after a one month period of operation
Description: Cellulose acetate membranes were cast from a dope solution containing about 20% of a cellulose di- and -tri-acetate mixture and 0.5% and 2.0% by weight, respectively, of the antimicrobial agent of formula (3). The solvent is a mixture of dioxane and acetone (2:1; w/w).
Further, the cellulose acetate membranes were used in a reverse osmosis module in a desalination process.
The reverse osmosis module was tested to determine any bacterial presence in the permeate.

Question: For `Oc1cc(Cl)ccc1Oc1ccc(Cl)cc1` [formula (3), 4,4′-dichloro-2-hydroxydiphenylether], which “bacterial presence in the permeate and on the membrane” value is on record?
Answer: no bacteria could be found
